In experiment [1] the test system is outpatients with mild-to-moderate Alzheimer's disease. In words: ADAS-cog in randomized, double-blind, placebo-controlled study. It counts as in vivo, human. The following applies: for ADAS-cog Non-Responder, number of patients / ADAS-cog Responder (change from baseline <= -4), number of patients / ADAS-cog Difference (memantine minus placebo, LS mean): Week 24, ITT; for ADAS-cog Difference (memantine minus placebo, LS mean): 20 mg/day. From the text:
The present invention is based on results from a randomized, double-blind, placebo-controlled, multi-center, parallel-group study comparing memantine to placebo in outpatients diagnosed with probable AD according to […] criteria. Severity of mild to moderate was established using the Mini-Mental State Examination (MMSE) score (≧10 and ≦22; 0 is the lowest score and 30 is the highest score). In the study of the present invention, there were approximately 400 patients enrolled across 42 centers. Evaluation of primary efficacy was achieved by Alzheimer's Disease Assessment Scale-cognitive subscale (ADAS-cog) and the Clinician's Interview-Based Impression of Change including caregiver information (CIBIC-plus). Secondary efficacy was determined using Alzheimer's disease Cooperative Study-Activities of Daily Living (ADCS-ADL) and Neuropsychiatric Inventory (NPI) criteria. The ADAS-cog comprises an 11-item scale that is used to assess the severity of selected areas of cognitive impairment (memory, language, orientation, reason and praxis). Scores range from 0 to 70 with lower scores indicating lesser severity and a score of 70 representing the worst cognitive impairment. Its use in assessing and following changes in patients with mild to moderate Alzheimer's disease has been extensively validated. The ADAS-cog was administered at each clinic visit starting with the Baseline visit and at the end of weeks 4, 8, 12, 18 and 24 (or upon early termination). The study consisted of 1-2 weeks of single-blind placebo treatment followed by 24 weeks of double-blind treatment. Results were evaluated over seven clinical visits; at initial screening, baseline, and the end of weeks 4, 8, 12, 18 and 24. The population of patients who received at least one dose of double-blind memantine, and completed at least one post-baseline efficacy evaluation of either the ADAS-cog or the CIBIC-plus is designated the “intent-to-treat” (ITT) population. The population of randomized patients who received at least one dose of double-blind study medication is designated the “safety population”. The randomized population designates all patients randomized into the study. This study was conducted as a fixed-dose study. All patients assigned to the memantine group received an initial dose of 5 mg per day; the dose was titrated in 5 mg weekly increments to a final dose of 20 mg/day (administered as two 5 mg tablets twice a day). Study drug was provided as blister packs containing masked study medication such that placebo and memantine tablets were visually identical, and all patients received four tablets of study medication daily (in combinations of memantine 5 mg tablets and matching placebo tablets). Transient dose adjustments were permitted between weeks 3 and 8 for patients experiencing dose-limiting adverse events. However, all patients were required to receive the target dose of 20 mg/day by the end of week 8. Patients not able to tolerate the target dose by week 8 were discontinued from the study. Statistical analysis. For primary efficacy measurements, (e.g., change from Baseline (visit 2) to Week 24 in the total ADAS-cog scores from the ITT population) the comparison between memantine and placebo were performed using two-way analysis of covariance (ANCOVA) with treatment group and center as the two factors, and the baseline scores as covariate. Both the Last Observation Carried Forward (LOCF) imputation approach and the Observed Cases (OC) approach were performed at week 24. Results of ANCOVA were summarized using least square (LS) means for each treatment group with corresponding standard error (SE), the between-treatment (2-24 week) difference in the least square means with corresponding 95% confidence interval, and the between-treatment p-value corresponds to the SAS Type III sum of squares.

The next experiment has as its system NMDA receptor. The following applies: uncompetitive antagonist; cited from earlier work.
Experiment [2] concerns brain glucose metabolism in mild-to-moderate AD subjects. In words: FDG PET regional brain glucose metabolism. It counts as in vivo, human. The following applies: 24 weeks of 20 mg/day. The protocol: Drug treatment. As stated above, patients were randomized to receive 20 mg/day (10 b.i.d.) memantine or placebo for 24 weeks. PET scans were performed for 10 (5 receiving memantine and 5 receiving placebo) patients at baseline and at the end of week 24.
PET Scan Acquisition. Subjects were PET scanned at the University of California, Irvine Brain Imaging Center using a GE 2048-15B dedicated head scanner. Thirty slices at 6.5-mm intervals (15 in each of two sets) were obtained so as to cover the entire brain. Attenuation correction was performed by obtaining a transmission scan using a ^68Ge pin source. A thermosetting plastic facemask was used to hold the subject stationary during the 60 minutes of total image acquisition. Scans were reconstructed with a blank and a transmission scan. PET image count was used for study analyses and adjusted for intrasubject global differences using normalization (proportional scaling).
PET Image Methodology and Analysis. Differences in regional FDG uptake were analyzed using SPM99 software (Wellcome Department of Cognitive Neurology, London, UK), implemented on the Matlab platform (MathWorks Inc., Sherborn, Mass.). Statistical parametric maps (SPMs) are spatially extended statistical processes that are constructed to test hypotheses about regionally specific effects in neuroimaging data. […]

In the case of `CC12CC3CC(C)(C1)CC(N)(C3)C2` [Memantine, 1-amino-3,5-dimethyladamantane], the “ADAS-cog Non-Responder, number of patients” value in experiment [1] (LOCF analysis) was 158/148; in experiment [1] (OC analysis) it was 129/126. Also, the “ADAS-cog Responder (change from baseline <= -4), number of patients” value was 40/47 in experiment [1] (LOCF analysis) and 33/34 in experiment [1] (OC analysis). In addition, the “ADAS-cog Difference (memantine minus placebo, LS mean)” value in experiment [1] (LOCF analysis, p=0.003) is recorded as −1.9; in experiment [1] (OC analysis, p=0.130) it was −1.1. Further, the “ADAS-cog LS mean change” value in experiment [1] (week 8, LOCF, placebo 0.2, p 0.003) is given as −1.2; in experiment [1] (week 8, OC, placebo 0.2, p=0.006), −1.1; in experiment [1] (week 12, LOCF, placebo -0.1, p=0.009) it was −1.4. Also, the “affinity for the NMDA receptor” value in the experiment on NMDA receptor is on record as “moderate affinity”. In experiment [2] (5 patients, CNS incl. cerebral cortex, cerebellum, brainstem, p<0.025), the “regional brain glucose metabolic activity (FDG PET) compared to baseline” value is recorded as “metabolic increases”. The “regional brain glucose metabolism (FDG PET) compared to baseline” value in experiment [2] (isolated region of left visual cortex and left putamen) is listed as “decreases in glucose metabolism”.
